Measurements from patent US10683289B2, “Apoptosis signal-regulating kinase 1 inhibitors and methods of use thereof” (ENANTA PHARMACEUTICALS, INC., priority 2018, dated 2020).
pIC50: −log10 of the molar value.

Target: ASK1 (Homo sapiens (Human), UniProt Q99683)
Assay: HTRF KinEASE Assay, inhibition of ASK1
Type: biochemical
Conditions: 5 nM ASK1 kinase, 1 uM STK3 peptide substrate, 100 uM ATP, TR-FRET; read-out: IC50 range
Description: HTRF® KinEASE™ Assay ASK1 was purchased from Thermofisher (Catalogue # PV4011), ATP was purchased from Sigma (Catalogue # A7699), HTRF® KinEASE™ Assay System was obtained from Cisbio (Bedford, Mass.). ½ Area plate was purchased from Perkin Elmer (Catalogue # #6005560). HTRF® KinEASE™-STK is a generic method for measuring serine/threonine kinase activities using a time-resolved fluorescence resonance energy transfer (TR-FRET) immunoassay. […] The test compound, 1 uM STK3 peptide substrate, and 5 nM of ASK1 kinase are incubated with kinase reaction buffer containing 50 mM HEPES pH 7.5, 0.01% BRIJ-35, 10 mM MgCl2, and 1 mM EGTA for 30 minutes. 100 uM ATP is added to start kinase reaction and incubated for 3 hours. The STK3-antibody labeled with Eu^3+-Cryptate and 125 nM streptavidin-XL665 are mixed in a single addition with stop reagents provided by the Cisbio kit used to stop the kinase reaction. Fluorescence is detected using an Envision Multilabeled 2014 reader from PerkinElmer. The Fluorescence is measured at 615 nm (Cryptate) and 665 nm (XL665) and a ratio of 665 nm/615 nm is calculated for each well. The resulting TR-FRET is proportional to the phosphorylation level. […] IC50 was determined by XLfit 5.3. By using above method, the inhibition of ASK1 was evaluated for the compounds of Formula (I).

Chain of ASK1 (Q99683 whole entry): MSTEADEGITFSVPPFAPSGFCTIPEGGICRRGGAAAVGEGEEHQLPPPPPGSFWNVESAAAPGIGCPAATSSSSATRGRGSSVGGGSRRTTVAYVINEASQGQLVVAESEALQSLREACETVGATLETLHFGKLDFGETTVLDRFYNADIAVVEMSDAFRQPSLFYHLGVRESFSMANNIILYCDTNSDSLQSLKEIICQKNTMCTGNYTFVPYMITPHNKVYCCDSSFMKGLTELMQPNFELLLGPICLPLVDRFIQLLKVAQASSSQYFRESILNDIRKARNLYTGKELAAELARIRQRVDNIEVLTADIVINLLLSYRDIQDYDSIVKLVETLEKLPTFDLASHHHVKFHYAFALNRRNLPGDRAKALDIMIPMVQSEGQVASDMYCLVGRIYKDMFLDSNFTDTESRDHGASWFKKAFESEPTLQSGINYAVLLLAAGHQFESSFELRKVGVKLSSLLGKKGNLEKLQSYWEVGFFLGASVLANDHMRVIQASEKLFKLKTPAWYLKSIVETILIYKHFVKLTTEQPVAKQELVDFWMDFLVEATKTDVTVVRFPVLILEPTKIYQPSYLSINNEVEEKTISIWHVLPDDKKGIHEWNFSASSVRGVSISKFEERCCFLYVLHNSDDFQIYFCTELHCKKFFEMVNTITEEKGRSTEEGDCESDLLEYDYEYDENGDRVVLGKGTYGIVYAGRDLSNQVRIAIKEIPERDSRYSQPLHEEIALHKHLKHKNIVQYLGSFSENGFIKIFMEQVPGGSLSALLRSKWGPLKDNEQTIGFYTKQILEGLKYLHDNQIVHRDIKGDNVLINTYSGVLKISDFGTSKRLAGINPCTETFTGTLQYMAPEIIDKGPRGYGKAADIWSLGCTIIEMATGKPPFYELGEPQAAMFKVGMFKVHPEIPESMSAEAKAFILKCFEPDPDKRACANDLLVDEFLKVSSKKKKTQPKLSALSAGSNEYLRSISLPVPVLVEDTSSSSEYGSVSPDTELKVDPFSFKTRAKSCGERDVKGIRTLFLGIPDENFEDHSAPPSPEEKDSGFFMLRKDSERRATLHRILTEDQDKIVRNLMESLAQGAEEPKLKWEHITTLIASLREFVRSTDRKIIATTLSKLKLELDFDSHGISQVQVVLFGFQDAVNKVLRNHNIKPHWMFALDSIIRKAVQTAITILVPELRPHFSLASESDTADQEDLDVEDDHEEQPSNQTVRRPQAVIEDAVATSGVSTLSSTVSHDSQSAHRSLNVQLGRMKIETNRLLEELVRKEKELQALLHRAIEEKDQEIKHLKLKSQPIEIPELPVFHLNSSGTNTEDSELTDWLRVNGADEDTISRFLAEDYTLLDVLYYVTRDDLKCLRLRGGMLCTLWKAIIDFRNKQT

Structure (SMILES)	pIC50
COc1cc2c(cc1C(=O)Nc1cccc(-c3nncn3C(C)C)n1)S(=O)(=O)N(C)C2 [Example 16, N-(6-(4-isopropyl-4H-1,2,4-triazol-3-yl)pyridin-2-yl)-5-methoxy-2-methyl-2,3-dihydrobenzo[d]isothiazole-6-carboxamide 1,1-dioxide]	> 8.82
CC(C)n1cnnc1-c1cccc(NC(=O)c2cc3c(cc2F)CN(C)S3(=O)=O)n1 [Example 15, 5-fluoro-N-(6-(4-isopropyl-4H-1,2,4-triazol-3-yl)pyridin-2-yl)-2-methyl-2,3-dihydrobenzo[d]isothiazole-6-carboxamide 1,1-dioxide]	7.00 to 8.00
CC(C)Oc1cc2c(cc1C(=O)Nc1cccc(-c3nnnn3[C@H](C)CO)n1)S(=O)(=O)N(C(C)C)C2 [Example 13, (R)—N-(6-(1-(1-hydroxypropan-2-yl)-1H-tetrazol-5-yl)pyridin-2-yl)-5-isopropoxy-2-isopropyl-2,3-dihydrobenzo[d]isothiazole-6-carboxamide 1,1-dioxide]	7.00 to 8.00
C[C@H](CO)n1nnnc1-c1cccc(NC(=O)c2cc3c(cc2F)CN(C)S3(=O)=O)n1 [Example 17, (R)-5-fluoro-N-(6-(1-(1-hydroxypropan-2-yl)-1H-tetrazol-5-yl)pyridin-2-yl)-2-methyl-2,3-dihydrobenzo[d]isothiazole-6-carboxamide 1,1-dioxide]	7.00 to 8.00
CC(C)N1Cc2cc(N(C)C)c(C(=O)Nc3cccc(-c4nnnn4[C@H](C)CO)n3)cc2S1(=O)=O [Example 14, (R)-5-(dimethylamino)-N-(6-(1-(1-hydroxypropan-2-yl)-1H-tetrazol-5-yl)pyridin-2-yl)-2-isopropyl-2,3-dihydrobenzo[d]isothiazole-6-carboxamide 1,1-dioxide]	7.00 to 8.00
CC(C)N1Cc2cc(F)c(C(=O)Nc3cccc(-c4nnnn4[C@H](C)CO)n3)cc2S1(=O)=O [Example 9, (R)-5-fluoro-N-(6-(1-(1-hydroxypropan-2-yl)-1H-tetrazol-5-yl)pyridin-2-yl)-2-isopropyl-2,3-dihydrobenzo[d]isothiazole-6-carboxamide 1,1-dioxide]	7.00 to 8.00
C[C@H](CO)n1nnnc1-c1cccc(NC(=O)c2cc3c(cc2F)CN(C(C)(C)C)S3(=O)=O)n1 [Example 2, (R)-2-(tert-butyl)-5-fluoro-N-(6-(1-(1-hydroxypropan-2-yl)-1H-tetrazol-5-yl)pyridin-2-yl)-2,3-dihydrobenzo[d]isothiazole-6-carboxamide 1,1-dioxide]	7.00 to 8.00
COc1cc2c(cc1C(=O)Nc1cccc(-c3nnnn3[C@H](C)CO)n1)S(=O)(=O)N(C(C)C)C2 [Example 10, (R)—N-(6-(1-(1-hydroxypropan-2-yl)-1H-tetrazol-5-yl)pyridin-2-yl)-2-isopropyl-5-methoxy-2,3-dihydrobenzo[d]isothiazole-6-carboxamide 1,1-dioxide]	> 8.82
CC(C)n1nnnc1-c1cccc(NC(=O)c2cc3c(cc2F)CN(C(C)(C)C)S3(=O)=O)n1 [Example 1, 2-(tert-butyl)-5-fluoro-N-(6-(1-isopropyl-1H-tetrazol-5-yl)pyridin-2-yl)-2,3-dihydrobenzo[d]isothiazole-6-carboxamide 1,1-dioxide]	6.00 to 7.00
COc1cc2c(cc1C(=O)Nc1cccc(-c3nncn3C(C)C)n1)S(=O)(=O)N(C(C)C)C2 [Example 8, 2-isopropyl-N-(6-(4-isopropyl-4H-1,2,4-triazol-3-yl)pyridin-2-yl)-5-methoxy-2,3-dihydrobenzo[d]isothiazole-6-carboxamide 1,1-dioxide]	> 8.82
COCCN1Cc2cc(OC)c(C(=O)Nc3cccc(-c4nnnn4[C@H](C)CO)n3)cc2S1(=O)=O [Example 22, (R)—N-(6-(1-(1-hydroxypropan-2-yl)-1H-tetrazol-5-yl)pyridin-2-yl)-5-methoxy-2-(2-methoxyethyl)-2,3-dihydrobenzo[d]isothiazole-6-carboxamide 1,1-dioxide]	> 8.82
COCCN1Cc2cc(OC)c(C(=O)Nc3cccc(-c4nncn4C(C)C)n3)cc2S1(=O)=O [Example 20, N-(6-(4-isopropyl-4H-1,2,4-triazol-3-yl)pyridin-2-yl)-5-methoxy-2-(2-methoxyethyl)-2,3-dihydrobenzo[d]isothiazole-6-carboxamide 1,1-dioxide]	7.00 to 8.00
CC(C)N1Cc2cc(F)c(C(=O)Nc3cccc(-c4nncn4C(C)C)n3)cc2S1(=O)=O [Example 7, 5-fluoro-2-isopropyl-N-(6-(4-isopropyl-4H-1,2,4-triazol-3-yl)pyridin-2-yl)-2,3-dihydrobenzo[d]isothiazole-6-carboxamide 1,1-dioxide]	7.00 to 8.00
COc1cc2c(cc1C(=O)Nc1cccc(-c3nnnn3C(C)C)n1)S(=O)(=O)N(C(C)(C)C)C2 [Example 6, 2-(tert-butyl)-N-(6-(1-isopropyl-1H-tetrazol-5-yl)pyridin-2-yl)-5-methoxy-2,3-dihydrobenzo[d]isothiazole-6-carboxamide 1,1-dioxide]	< 6.00
COc1cc2c(cc1C(=O)Nc1cccc(-c3nnnn3[C@H](C)CO)n1)S(=O)(=O)N(C)C2 [Example 18, (R)—N-(6-(1-(1-hydroxypropan-2-yl)-1H-tetrazol-5-yl)pyridin-2-yl)-5-methoxy-2-methyl-2,3-dihydrobenzo[d]isothiazole-6-carboxamide 1,1-dioxide]	> 8.82
COCCN1Cc2cc(F)c(C(=O)Nc3cccc(-c4nnnn4[C@H](C)CO)n3)cc2S1(=O)=O [Example 21, (R)-5-fluoro-N-(6-(1-(1-hydroxypropan-2-yl)-1H-tetrazol-5-yl)pyridin-2-yl)-2-(2-methoxyethyl)-2,3-dihydrobenzo[d]isothiazole-6-carboxamide 1,1-dioxide]	> 8.82
CC(C)N1Cc2cc(OCC(F)(F)F)c(C(=O)Nc3cccc(-c4nnnn4[C@H](C)CO)n3)cc2S1(=O)=O [Example 12, (R)—N-(6-(1-(1-hydroxypropan-2-yl)-1H-tetrazol-5-yl)pyridin-2-yl)-2-isopropyl-5-(2,2,2-trifluoroethoxy)-2,3-dihydrobenzo[d]isothiazole-6-carboxamide 1,1-dioxide]	6.00 to 7.00
CC(C)n1nnnc1-c1cccc(NC(=O)c2cc3c(cc2F)CCN(C(C)(C)C)S3(=O)=O)n1 [Example 4, 2-(tert-butyl)-6-fluoro-N-(6-(1-isopropyl-1H-tetrazol-5-yl)pyridin-2-yl)-3,4-dihydro-2H-benzo[e][1,2]thiazine-7-carboxamide 1,1-dioxide]	7.00 to 8.00
COCCN1Cc2cc(F)c(C(=O)Nc3cccc(-c4nncn4C(C)C)n3)cc2S1(=O)=O [Example 19, 5-fluoro-N-(6-(4-isopropyl-4H-1,2,4-triazol-3-yl)pyridin-2-yl)-2-(2-methoxyethyl)-2,3-dihydrobenzo[d]isothiazole-6-carboxamide 1,1-dioxide]	7.00 to 8.00
